Data from US20240058455A1, “BIOORTHOGONAL LINKERS AND REACTIONS” (The General Hospital Corporation, priority 2020, published 2024).
Where a SMILES comes first, the peptide text is derived from it.

Columns and labels:
[1] = in vivo; cited from earlier work
[2] = Release from rTCO-AlexaFluor 350 conjugate monitored by LCMS; details: Tz 200 μM, 7 125 μM, pH 7, 25° C.; PyrMe within ~8 hours, PyrPA initial fast phase
Description: Similar to the previous study (Carlson et al.), an rTCO-AlexaFluor 350 conjugate was used (7, FIG. 5) to further investigate the release step. Reactions were carried out in buffered aqueous solution at pH 7 and 25° C., selecting concentrations of PyrMe or PyrPA (200 μM) and 7 (125 μM) such that the click reaction was done in less than 4 minutes, allowing temporal monitoring of post-click reactions by LCMS. With PyrMe, slow monophasic release was observed that reached a yield of approximately 50% within ˜8 hours. […] To verify these hypotheses, PyrMe was reacted with rTCO-glycine, the release reaction was allowed to proceed to completion, and the non-releasing isomer was then isolated. […] This key finding is in line with the observations of Sarris et al., who achieved approx. 80% release with PymK (3) and invoked the preferred formation of the releasing adduct with the ethylammonium moiety in head-to-head position. (due to pre-click interaction of NH3^+ with the carbamate functionality of the leaving group) to explain this increased conversion.

[3] = Second order rate constants of tetrazines with PEGylated rTCO 6; details: reaction with PEGylated rTCO 6
[4] = Stability of C2TCO in full cell growth media, titration with DMT; type: in vitro ADME; details: full cell growth media (10% FBS), 37° C., up to 48 h
Source text: C2TCO can be incorporated into probes that bind to intracellular targets.

[5] = Endpoint cleavage of AF594-C2TCO-AF594 with tetrazines (HPLC, fluorescence detection); details: 15 + excess tetrazine, buffered solution pH 7.4, endpoint 24 h
Description: As an initial assessment of cleavage efficiency, 15 was reacted with an excess of selected tetrazines in buffered solution at pH 7.4 and analyzed the reaction mixtures at an endpoint of 24 h by HPLC with fluorescence detection. […] One hypothesis is that this is not only due to slow tautomerization, but also limited elimination of the respective B1/B2 intermediate. The inability to achieve complete release with Pyr2Tz highlights the advantages of a cleavage directing group.
Release measurements with AF594-C2TCO-AF594: Analytical stock solutions and buffers. 10 mM stock solutions of the release probe AF594-C2TCO-AF594 was prepared and further diluted with citrate-phosphate buffer (as indicated below), so that the final concentration of DMSO in buffer was never higher than 2%. Tetrazine stock solutions were prepared in DMSO at concentrations ranging from 10-100 mM and diluted with citrate-phosphate buffer (as indicated below), so that the final concentration of DMSO in buffer was never higher than 2%. […]
Endpoint measurements with AF594-C2TCO-AF594. […] The released AF594-amine was detected using an RF-20Axs fluorescence detector and confirmed by a LCMS-2020 mass spectrometer (ESI) implemented in the Nexera X2® UHPLC system.

In the case of alteplase: widely-used tPA thrombolytic, the “clearance t1/2” value [1] is listed as “about 5 min”.
In the case of N=C(N)NCCCC[C@@H]1NC(=O)CCSSC[C@@H](C(N)=O)NC(=O)[C@@H]2CCCN2C(=O)[C@H](Cc2c[nH]c3ccccc23)NC(=O)[C@H](CC(=O)O)NC(=O)CNC1=O [Eptifibatide] (HELM PEPTIDE1{[O=C(CCS[*:3])[*:2]].[N=C(N)NCCCC[C@H](N[*:1])C(=O)[*:2]].G.D.W.P.C.[am]}$PEPTIDE1,PEPTIDE1,1:R3-7:R3$$$V2.0), the half-life [1] is listed as 3 to 4 h.
In the case of O=C(O)CCc1nnc(-c2ccccn2)nn1 [PyrPA], the release yield [2] is reported as “very similar release yield”.
For Cc1nnc(-c2ccccn2)nn1 [PyrMe], the release yield [2] was “approximately 50%” and the “rate enhancement vs. DMT” value [3] was “up to 12 fold”.
With OC1/C=C/C(O)CCCC1 (stereo not drawn) [C2TCO, anti-cyclooct-2-ene-1,4-diol] the “stability (intact C2TCO)” value [4] was greater than 97%.
For Cc1nnc(C)nn1 [DMT], the cleavage [5] was “Nearly complete cleavage”.
For c1ccc(-c2nnc(-c3ccccn3)nn2)nc1 [Pyr2Tz, 3,6-bis(2-pyridyl)tetrazine], the cleavage [5] was 23%.
